The values that follow are results of earlier work, collected in patent publication US5993851A, “Method for preparing biphasic multilamellar lipid vesicles” (PharmaDerm Laboratories, Ltd., priority 1998, dated 1999).

The test system of the series is genital warts.

As to interferon alpha, the “Clinical outcome in words” value (in vivo) is given as “fairly successful”. The side effects entry (systemic application (i.m. injection), genital warts) is listed as “fever, myalgias, headache, nausea, fatigue”.
